Measured values as given in PubChem BioAssay AID256 (DTP/NCI, 2004).
Where “and” joins values, the source holds several entries; their conditions need not be identical. Equal values may be shown once. Toxic doses and inconclusive results are not listed.

System: CD2F1 mice, L1210 leukemia ip, survival T/C
Test: NCI In Vivo Anticancer Drug Screen. Data for tumor model L1210 Leukemia (intraperitoneal) in CD2F1 (CDF1) mice
Settings: higher = longer survival
Summary of the method: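 Ratio T/C, where T is the treated-group value and C the vehicle-dosed control value, from mice implanted with a transplantable tumor.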

[1] = endpoint: mean survival time, dose: 100.0 mg/kg/injection, schedule: Q01DX001 (ip), vehicle: saline with Tween-80
[2] = endpoint: mean survival time, dose: 200.0 mg/kg/injection, schedule: Q01DX001 (ip), vehicle: saline with Tween-80
[3] = endpoint: mean survival time, dose: 400.0 mg/kg/injection, schedule: Q01DX001 (ip), vehicle: saline with Tween-80
[4] = endpoint: mean survival time, dose: 100.0 mg/kg/injection, schedule: Q01DX009 (ip), vehicle: saline with Tween-80
[5] = endpoint: mean survival time, dose: 200.0 mg/kg/injection, schedule: Q01DX009 (ip), vehicle: saline with Tween-80
[6] = endpoint: mean survival time, dose: 400.0 mg/kg/injection, schedule: Q01DX009 (ip), vehicle: saline with Tween-80
[7] = endpoint: mean survival time, dose: 100.0 mg/kg/injection, schedule: Q04DX003 (ip), vehicle: saline with Tween-80
[8] = endpoint: mean survival time, dose: 200.0 mg/kg/injection, schedule: Q04DX003 (ip), vehicle: saline with Tween-80
[9] = endpoint: mean survival time, dose: 400.0 mg/kg/injection, schedule: Q04DX003 (ip), vehicle: saline with Tween-80
[10] = endpoint: mean survival time, dose: 100.0 mg/kg/injection, schedule: Q04DX002 (ip), vehicle: saline with Tween-80
[11] = endpoint: mean survival time, dose: 25.0 mg/kg/injection, schedule: Q01DX009 (ip), vehicle: saline with Tween-80
[12] = endpoint: mean survival time, dose: 50.0 mg/kg/injection, schedule: Q01DX009 (ip), vehicle: saline with Tween-80

C#CCN(Cc1ccc2nc(N)[nH]c(=O)c2c1)c1ccc(C(=O)NC(CCC(=O)O)C(=O)O)cc1 (configuration not stated)
T/C (endpoint: median survival time, dose: 7.5 mg/kg/injection, schedule: Q01DX009 (ip), vehicle: sodium bicarbonate): 109 % of control | T/C (endpoint: median survival time, dose: 15.0 mg/kg/injection, schedule: Q01DX009 (ip), vehicle: sodium bicarbonate): 105 % of control and 109 % of control | T/C (endpoint: median survival time, dose: 25.0 mg/kg/injection, schedule: Q01DX005 (ip), vehicle: water): 108 % of control | T/C (endpoint: median survival time, dose: 30.0 mg/kg/injection, schedule: Q01DX009 (ip), vehicle: sodium bicarbonate): 117 % of control and 109 % of control | T/C (endpoint: median survival time, dose: 50.0 mg/kg/injection, schedule: Q01DX005 (ip), vehicle: water): 109 % of control | T/C (endpoint: median survival time, dose: 86.4 mg/kg/injection, schedule: Q01DX005 (ip), vehicle: water): 121 % of control | T/C (endpoint: median survival time, dose: 120.0 mg/kg/injection, schedule: Q01DX009 (ip), vehicle: sodium bicarbonate): 156 % of control and 185 % of control | T/C (endpoint: median survival time, dose: 144.0 mg/kg/injection, schedule: Q01DX005 (ip), vehicle: water): 162 % of control | T/C (endpoint: median survival time, dose: 400.0 mg/kg/injection, schedule: Q01DX005 (ip), vehicle: water): 161 % of control

OCCOc1ccc2ccccc2c1
T/C [1]: 100 % of control | T/C (endpoint: mean survival time, dose: 100.0 mg/kg/injection, schedule: Q04DX003 (ip), vehicle: saline + alcohol): 97 % of control | T/C [2]: 108 % of control | T/C (endpoint: mean survival time, dose: 200.0 mg/kg/injection, schedule: Q04DX003 (ip), vehicle: saline + alcohol): 95 % of control | T/C [3]: 103 % of control | T/C (endpoint: mean survival time, dose: 400.0 mg/kg/injection, schedule: Q04DX003 (ip), vehicle: saline + alcohol): 91 % of control

Nc1ccc(C(=O)Oc2ccc([N+](=O)[O-])cc2)cc1
T/C [4]: 108 % of control | T/C [5]: 102 % of control | T/C [6]: 98 % of control

O=C1NNC(=O)C2C3CCC(C3)C12 (configuration not stated)
T/C (endpoint: mean survival time, dose: 100.0 mg/kg/injection, schedule: Q04DX003 (ip), vehicle: saline sonified): 95 % of control | T/C (endpoint: mean survival time, dose: 200.0 mg/kg/injection, schedule: Q04DX003 (ip), vehicle: saline sonified): 89 % of control

CCOc1c(Cl)cc(Cl)cc1C(c1ccccc1S(=O)(=O)O)c1cc(Cl)cc(Cl)c1OCC
T/C (endpoint: mean survival time, dose: 6.25 mg/kg/injection, schedule: Q01DX009 (ip), vehicle: saline sonified): 97 % of control | T/C (endpoint: mean survival time, dose: 6.25 mg/kg/injection, schedule: Q04DX003 (ip), vehicle: saline sonified): 97 % of control | T/C (endpoint: mean survival time, dose: 12.5 mg/kg/injection, schedule: Q01DX009 (ip), vehicle: saline sonified): 96 % of control | T/C (endpoint: mean survival time, dose: 12.5 mg/kg/injection, schedule: Q04DX003 (ip), vehicle: saline sonified): 103 % of control | T/C (endpoint: mean survival time, dose: 25.0 mg/kg/injection, schedule: Q01DX009 (ip), vehicle: saline sonified): 96 % of control | T/C (endpoint: mean survival time, dose: 25.0 mg/kg/injection, schedule: Q04DX003 (ip), vehicle: saline sonified): 95 % of control

CCOC(=O)C1=C(C)NC(C)=C(C(=O)OCC)C1Cc1ccccc1
T/C (endpoint: mean survival time, dose: 100.0 mg/kg/injection, schedule: Q01DX009 (ip), vehicle: other): 106 % of control | T/C (endpoint: mean survival time, dose: 200.0 mg/kg/injection, schedule: Q01DX009 (ip), vehicle: other): 98 % of control | T/C (endpoint: mean survival time, dose: 400.0 mg/kg/injection, schedule: Q01DX009 (ip), vehicle: other): 104 % of control

O=NN(CCCl)C(=O)NC1CCC(=O)NC1=O (configuration not stated)
T/C (endpoint: median survival time, dose: 15.0 mg/kg/injection, schedule: Q01DX001 (ip), vehicle: saline with Tween-80): 344 % of control | T/C (endpoint: median survival time, dose: 20.0 mg/kg/injection, schedule: Q01DX001 (ip), vehicle: saline with Tween-80): 344 % of control | T/C (endpoint: median survival time, dose: 25.0 mg/kg/injection, schedule: Q01DX001 (ip), vehicle: saline with Tween-80): 344 % of control | T/C (endpoint: median survival time, dose: 30.0 mg/kg/injection, schedule: Q01DX001 (ip), vehicle: saline with Tween-80): 344 % of control

NC(=S)N/N=C/c1ccc(-c2ccccc2)cc1
T/C [7]: 97 % of control

CNCCc1ccc(O)c(O)c1
T/C (endpoint: mean survival time, dose: 300.0 mg/kg/injection, schedule: Q01DX001 (ip), vehicle: saline): 100 % of control

CCCCCCCCCCCCCCCCCCCCc1ccccc1
T/C (endpoint: mean survival time, dose: 100.0 mg/kg/injection, schedule: Q04DX002 (ip), vehicle: Klucel (hydroxypropylcellulose) (HPC)): 97 % of control | T/C (endpoint: mean survival time, dose: 200.0 mg/kg/injection, schedule: Q04DX002 (ip), vehicle: Klucel (hydroxypropylcellulose) (HPC)): 94 % of control | T/C (endpoint: mean survival time, dose: 400.0 mg/kg/injection, schedule: Q04DX002 (ip), vehicle: Klucel (hydroxypropylcellulose) (HPC)): 90 % of control

CN(C)Cc1cn(C2CC(O)C(CO)O2)c(=O)[nH]c1=O (configuration not stated)
T/C (endpoint: mean survival time, dose: 12.5 mg/kg/injection, schedule: Q01DX005 (ip), vehicle: water): 101 % of control | T/C (endpoint: mean survival time, dose: 25.0 mg/kg/injection, schedule: Q01DX005 (ip), vehicle: water): 98 % of control | T/C (endpoint: mean survival time, dose: 50.0 mg/kg/injection, schedule: Q01DX005 (ip), vehicle: water): 104 % of control | T/C (endpoint: mean survival time, dose: 100.0 mg/kg/injection, schedule: Q01DX005 (ip), vehicle: water): 106 % of control | T/C (endpoint: mean survival time, dose: 200.0 mg/kg/injection, schedule: Q01DX005 (ip), vehicle: water): 104 % of control

O=[N+]([O-])c1ccccc1-c1cc(-c2ccccc2)nn1-c1ccccc1
T/C [4]: 102 % of control | T/C [7]: 98 % of control | T/C [5]: 103 % of control | T/C [8]: 98 % of control | T/C [6]: 97 % of control | T/C [9]: 95 % of control

COC1=[C]([Hg][Br])C(OC)OC1OC (configuration not stated)
T/C (endpoint: mean survival time, dose: 5.0 mg/kg/injection, schedule: Q01DX001 (ip), vehicle: saline): 98 % of control | T/C (endpoint: mean survival time, dose: 10.0 mg/kg/injection, schedule: Q01DX001 (ip), vehicle: saline): 102 % of control | T/C (endpoint: mean survival time, dose: 20.0 mg/kg/injection, schedule: Q01DX001 (ip), vehicle: saline): 110 % of control

CC1=C(/C=C/C(C)(O)CC2=NC(C)(C)CO2)C(C)(C)CCC1 (configuration not stated)
T/C (endpoint: mean survival time, dose: 25.0 mg/kg/injection, schedule: Q04DX002 (ip), vehicle: saline with Tween-80): 101 % of control | T/C (endpoint: mean survival time, dose: 50.0 mg/kg/injection, schedule: Q04DX002 (ip), vehicle: saline with Tween-80): 93 % of control | T/C [10]: 93 % of control | T/C [7]: 91 % of control | T/C [9]: 86 % of control

OCCOCC(F)(F)F
T/C (endpoint: mean survival time, dose: 6.25 mg/kg/injection, schedule: Q01DX009 (ip), vehicle: saline with Tween-80): 100 % of control | T/C (endpoint: mean survival time, dose: 12.5 mg/kg/injection, schedule: Q01DX009 (ip), vehicle: saline with Tween-80): 90 % of control and 112 % of control | T/C [11]: 95 % of control and 102 % of control | T/C [12]: 94 % of control and 100 % of control | T/C [4]: 94 % of control and 100 % of control | T/C [5]: 94 % of control and 110 % of control

COc1cccc2c1CCC1C2CC=C2CC3(CCC21C)OCCO3 (configuration not stated)
T/C (endpoint: mean survival time, dose: 100.0 mg/kg/injection, schedule: Q04DX003 (sc), vehicle: steriod suspending solution): 97 % of control | T/C (endpoint: mean survival time, dose: 200.0 mg/kg/injection, schedule: Q04DX003 (sc), vehicle: steriod suspending solution): 92 % of control | T/C (endpoint: mean survival time, dose: 400.0 mg/kg/injection, schedule: Q04DX003 (sc), vehicle: steriod suspending solution): 94 % of control

COC1C(O)C(C)OC(OC2CC(O)C3(C)C(CCC4C3CCC3(C)C(C5=CC(=O)OC5)CCC43O)C2)C1O (configuration not stated) (tested in a mixture with another compound)
T/C (endpoint: mean survival time, dose: 50.0 mg/kg/injection, schedule: Q01DX001 (ip), vehicle: saline sonified): 87 % of control

CC(=O)OC(c1ccccc1)C(Cl)(Cl)Cl (configuration not stated)
T/C [7]: 100 % of control | T/C [8]: 105 % of control | T/C [9]: 105 % of control

[Cl][Pt+2][Cl].[NH-]Cc1ccccc1.[NH-]Cc1ccccc1
T/C (endpoint: mean survival time, dose: 50.0 mg/kg/injection, schedule: Q01DX001 (ip), vehicle: saline with Tween-80): 110 % of control | T/C [1]: 110 % of control | T/C [2]: 110 % of control

CC(O)C1OC(n2cnc3c(N)ncnc32)CC1N (configuration not stated)
T/C (endpoint: mean survival time, dose: 12.5 mg/kg/injection, schedule: Q01DX005 (ip), vehicle: distilled water + Tween-80): 101 % of control | T/C (endpoint: mean survival time, dose: 25.0 mg/kg/injection, schedule: Q01DX005 (ip), vehicle: distilled water + Tween-80): 103 % of control | T/C (endpoint: mean survival time, dose: 50.0 mg/kg/injection, schedule: Q01DX005 (ip), vehicle: distilled water + Tween-80): 100 % of control | T/C (endpoint: mean survival time, dose: 100.0 mg/kg/injection, schedule: Q01DX005 (ip), vehicle: distilled water + Tween-80): 100 % of control | T/C (endpoint: mean survival time, dose: 200.0 mg/kg/injection, schedule: Q01DX005 (ip), vehicle: distilled water + Tween-80): 100 % of control

CCN(CC)n1c(=O)[nH]n(CC)c1=O
T/C [1]: 101 % of control | T/C [10]: 101 % of control | T/C [2]: 97 % of control | T/C (endpoint: mean survival time, dose: 200.0 mg/kg/injection, schedule: Q04DX002 (ip), vehicle: saline with Tween-80): 93 % of control | T/C [3]: 100 % of control | T/C (endpoint: mean survival time, dose: 400.0 mg/kg/injection, schedule: Q04DX002 (ip), vehicle: saline with Tween-80): 101 % of control

ClCc1ccc(Cl)c(Cl)c1Cl
T/C [11]: 100 % of control | T/C [12]: 100 % of control | T/C [4]: 100 % of control
